Results as given in patent publication US20240034761A1, “REGENERATION OF MAMMALIAN TISSUES USING SYNTHETIC IMMODULINS” (priority 2022, published 2024).
Marks after values point to notes of the source that are not given here. Values belong to the molecule of their own block, whether it stands above or below them. Square brackets hold non-standard residues; d marks the D form. Ends that are not written are not given here. Peptide text beside a SMILES is read from it.

Assays:
[1] = system: THP1-Dual monocyte reporter cell line; test: Adjuvant effect of helper molecules on immX3 peptide potency in THP1-Dual assay; assay type: cell-based, human
Description: (§1) Mammalian cell differentiation assays employed the THP1-Dual monocyte reporter cell line (Invivogen Inc, San Diego, CA) seeded at 2×10e5 cells per well in 96-well plates and cultured at 37 degrees C. in RPMI-1640 growth medium plus 10% fetal bovine serum and 1% penicillin/streptomycin. Cells were subsequently treated for 24 hours with 100 ng/ml Phorbol 12-myristate 13-acetate (PMA protocol; Cayman Chemical Company, Ann Arbor, MI). Peptide (0.33 uM or 0.66 uM, as indicated) was then added, and incubation continued for an additional 24 hours. Culture supernatants were assayed for CCL22. Plates with adherent cells were washed with PBS and assayed for immunoreactivity of surface markers such as CD169, Clec9a or Clec12a using fuorescent tag- or biotin-labeled anti-human antibodies purchased from Miltenyi Biotec (Auburn, CA) and the secondary detection reagent recommended by the manufacturer.
The THP1-Dual cell differentiation assay was carried out as described above in Example 2, using immX3 peptide (330 nM) in all samples plus the indicated helper or inhibitor molecule. Molecules were purched from Cayman Chemical Company (Ann Arbor, MI) or Sigma Chemical Company (St. Louis, MO). AU=arbitrary ELISA units. **p<0.01.

[2] = PIP-binding membrane assay (Membrane Lipid Strips); set-up: key: —: −−− no binding; +++ strong binding; conditions: 400 ng peptide
Description: N-terminally biotinylated versions of the peptides listed below were used in various assays listed in the examples. For the two types of phosphatidylinositon phosphate (PIP)-binding assays, imm1-imm6 peptides were used.
In the PIP-binding membrane assay, 400 ng of each peptide was bound to Membrane Lipid Strips (Catalog # P-6002, Echelon Biosciences, Salt Lake City, UT) and developed according to the manufacturer's instructions. Binding to PIPs was as follows (−−− no binding; +++ strong binding): […]

[3] = system: THP1-Dual monocyte reporter cell line; test: THP1-Dual myeloid cell differentiation assay (PMA protocol); assay type: cell-based, human; conditions: PMA 24 h, then peptide 0.33 uM or 0.66 uM 24 h; for CD169+ (AU): relative to immX3AVD = 100; for CCL22: culture supernatant
Description: as §1

[4] = system: C2C12 myoblastic cell line; test: C2C12 myoblast differentiation, creatine kinase; assay type: cell-based; conditions: 0.66 uM peptide, 96 hours; helper none; relative to immX3AVD = 100
Description: Differentiation assays employed the C2C12 myoblastic cell line (ATCC, Manassas, VA) seeded at 2×10e5 cells per well in 96-well plates and cultured at 37 degrees C. in DMEM growth medium plus 10% fetal bovine serum and 1% penicillin/streptomycin. For differentiation, 10% fetal bovine serum was replaced with 2% horse serum. 0.66 uM peptide was then added, and incubation continued for an additional 96 hours. Plates with adherent cells were washed with PBS, lysed with Lytic-M buffer (Sigma Chemical Company, St. Louis, MO) and the lysates were assayed for creatine kinase using a kit purchased from Bioassay Systems (Cat. #ECPK-100, Hayward, CA). Effects were visually confirmed with microscopy tracking myotube formation. Results were expressed as units per milliliter relative to the control immX3AVD peptide, and p values were also calculated and shown relative to control immX3AVD peptide (** p<0.05 versus immX3AVD control; avg±SD).

[5] = immX3 peptide 330 nM plus helper at 2 uM
[6] = immX3 peptide 330 nM plus helper at 1 ug/ml
[7] = immX3 peptide 330 nM plus helper at 1 mM
[8] = immX3 peptide 330 nM plus helper at 15 uM
[9] = immX3 peptide 330 nM plus helper at 0.1 ug/ml

Molecule: O=C1CCc2cc(OCCCCc3nnnn3C3CCCCC3)ccc2N1 [Cilostazol]
CD169 (AU) [1, 5]: 99.4 ± 27.7 AU

Binding to Phosphatidylinositol [2]: — | Binding to PtdIns(3,4,5)P [PIP3] [2]: — | Binding to PtdIns(4)P [PIP1] [2]: — | Binding to PtdIns(4,5)P [PIP2] [2]: —
Molecule: CSCC[C@H](NC(=O)[C@H](CO)NC(=O)[C@@H](NC(=O)[C@H](CCC(=O)O)NC(=O)[C@H](CS)NC(=O)[C@H](CCC(N)=O)NC(=O)[C@H](CCCNC(=N)N)NC(=O)[C@H](CO)NC(=O)[C@H](Cc1c[nH]cn1)NC(=O)[C@H](Cc1ccc(O)cc1)NC(=O)[C@H](Cc1ccccc1)NC(=O)CNC(=O)[C@H](CC(N)=O)NC(=O)[C@@H](N)CCCCN)[C@@H](C)O)C(=O)N[C@@H](CC(=O)O)C(=O)NCC(=O)N[C@@H](CCC(=O)O)C(=O)N[C@@H](C)C(=O)NCC(=O)N[C@@H](CC(C)C)C(=O)N[C@@H](CS)C(=O)N[C@@H](Cc1c[nH]c2ccccc12)C(=O)O [imm1] (H-KNGFYHSRQCETSMDGEAGLCW-OH)
CD169+ (AU) [3]: 3.1 ± 2.2 AU

Molecule: Leptin
CD169 (AU) [1, 6]: 103.3 ± 11.6 AU

Molecule: KKGFYKKKQCRPSKGRKRGFCW(dA)VD (KKGFYKKKQCRPSKGRKRGFCW[dA]VD; cysteine pairing not given here) [immX3dAVD]
CD169+ (AU) [3]: 104.3 ± 6.1 AU | CCL22 [3]: 247.3 ± 16.1 pg/mL

Molecule: O=C(NCc1ccco1)c1ccc2c(c1)N(Cc1c(F)cccc1Cl)C(=O)CS2 [Peptide G10, G10]
CD169 (AU) [1, 5]: 143.4 ± 17.8** AU

Molecule: O=C(CO)[C@@H](O)[C@@H](O)[C@H](O)[C@H](O)CO [D-mannoheptulose]
CD169 (AU) ([1]; immX3 peptide 330 nM plus helper at 50 uM): 140.8 ± 12.4** AU

Molecule: C[C@H](O)C(=O)O [L-lactate]
CD169 (AU) ([1]; immX3 peptide 330 nM plus helper at 300 uM): 121.1 ± 5.6** AU

Molecule: C=C1/C(=C\C=C2/CCC[C@]3(C)[C@@H]([C@H](C)CCCC(C)(C)O)CC[C@@H]23)C[C@@H](O)C[C@@H]1O [Calcitriol]
CD169 (AU) [1, 5]: 102.0 ± 11.3 AU

Molecule: OC[C@H]1O[C@H](OC[C@H]2O[C@H](O[C@]3(CO)O[C@H](CO)[C@@H](O)[C@@H]3O)[C@H](O)[C@@H](O)[C@@H]2O)[C@H](O)[C@@H](O)[C@H]1O [D-raffinose]
CD169 (AU) [1, 7]: 111.9 ± 4.0** AU

Molecule: O=C(O)CC1CC(c2ccccc2)=NO1 (stereo not shown) [GIT27]
CD169 (AU) [1, 5]: 166.5 ± 34.1** AU

Molecule: O=C(O)/C=C/C(=O)O [L-fumarate]
CD169 (AU) [1, 7]: 101.5 ± 7.3 AU

Molecule: CN1c2ccc([N+](=O)[O-])cc2N=C(c2ccc(C(=O)O)cc2)c2cc3c(cc21)C(C)(C)CCC3(C)C [HX531]
CD169 (AU) [1, 5]: 90.4 ± 6.2 AU

Molecule: CN1c2ccccc2N=C(c2ccc(C(=O)O)cc2)c2cc3c(cc21)C(C)(C)CCC3(C)C [HX600]
CD169 (AU) [1, 5]: 110.5 ± 19.0 AU

Molecule: CN1C[C@H](C(=O)N[C@]2(C)O[C@@]3(O)[C@@H]4CCCN4C(=O)[C@H](Cc4ccccc4)N3C2=O)C[C@@H]2c3cccc4[nH]cc(c34)C[C@H]21 [Dihydroergotamine]
CD169 (AU) [1, 5]: 170.3 ± 20.7** AU

Molecule: C[C@H]1C[C@H]2[C@@H]3CCC4=CC(=O)C=C[C@]4(C)[C@@]3(F)[C@@H](O)C[C@]2(C)[C@@]1(O)C(=O)CCl [Clobetasol]
CD169 (AU) [1, 5]: 98.5 ± 5.5 AU

Molecule: Sc1ncnc2nc[nH]c12 [6-mercaptopurine]
CD169 (AU) [1, 5]: 104.9 ± 4.0 AU

Molecule: NGLLKIKKGFYKKKQCRPSKGRKRGFCWAVD [immX3K4e + 1]
CD169+ (AU) [3]: 128.4 ± 1.4 AU | Creatine Kinase Act. [4]: 178.4 ± 7.6** units per milliliter

Molecule: Cc1cc2c(cc1C1(c3ccc(C(=O)O)cn3)CC1)C(C)(C)CCC2(C)C [LG100268]
CD169 (AU) [1, 5]: 76.8 ± 11.9** AU

Molecule: CC(=O)S[C@@H]1CC2=CC(=O)CC[C@]2(C)[C@H]2CC[C@@]3(C)[C@@H](CC[C@@]34CCC(=O)O4)[C@H]12 [Spironolactone]
CD169 (AU) [1, 5]: 120.1 ± 10.5** AU

Molecule: CC(=O)/C=C1\C(=O)N(C)c2ccccc21 [Supercinnamaldehyde]
CD169 (AU) [1, 5]: 159.7 ± 16.6** AU

Molecule: CCCCCCCC(=O)c1c(O)cc(O)cc1CC(=O)OCC [Cytosporone B]
CD169 (AU) [1, 5]: 120.3 ± 6.4** AU

Molecule: Clc1ccc(C(c2c[nH]c3ccccc23)c2c[nH]c3ccccc23)cc1 [C-DIM12]
CD169 (AU) [1, 5]: 119.0 ± 3.7** AU

Molecule: C=C(c1ccc(C(=O)O)cc1)c1cc2c(cc1C)C(C)(C)CCC2(C)C [Bexarotene]
CD169 (AU) [1, 5]: 96.9 ± 6.8 AU

Molecule: Hyaluronan [Hyaluronan(HMW-HA)]
CD169 (AU) ([1]; immX3 peptide 330 nM plus helper at 0.6 ug/ml): 110.5 ± 10.2 AU

Molecule: Nc1nc2c(ncn2[C@@H]2O[C@@H]3COP(=O)(O)O[C@H]4[C@@H](O)[C@H](n5cnc6c(N)ncnc65)O[C@@H]4COP(=O)(O)O[C@@H]2[C@@H]3O)c(=O)[nH]1 [2′3′-cGAMP]
CD169 (AU) [1, 8]: 168.5 ± 10.9** AU

Molecule: Holotransferrin [Holotransferrin (Tf)]
CD169 (AU) ([1]; immX3 peptide 330 nM plus helper at 0.8 ug/ml): 126.8 ± 9.3** AU

Molecule: GM-CSF
CD169 (AU) [1, 9]: 147.0 ± 15.3** AU

Molecule: Nc1nc2c(ncn2[C@@H]2O[C@@H]3COP(=O)(O)O[C@H]4[C@@H](O)[C@H](n5cnc6c(=O)[nH]c(N)nc65)O[C@@H]4COP(=O)(O)O[C@H]3[C@H]2O)c(=O)[nH]1 [Cyclic-di-GMP]
CD169 (AU) [1, 8]: 142.9 ± 9.7** AU

Molecule: Heparin
CD169 (AU) [1, 6]: 34.1 ± 2.9** AU

Molecule: HP-B-cyclodextrin
CD169 (AU) [1, 7]: 121.1 ± 4.6** AU

Molecule: Oc1ccc(C(c2c[nH]c3ccccc23)c2c[nH]c3ccccc23)cc1 [C-DIM8]
CD169 (AU) [1, 5]: 91.0 ± 24.8 AU

Molecule: CC(C)[C@H](NC(=O)[C@H](Cc1ccccc1)NC(=O)[C@H](Cc1c[nH]c2ccccc12)NC(=O)[C@H](CS)NC(=O)[C@H](Cc1ccccc1)NC(=O)CNC(=O)[C@H](CCCNC(=N)N)NC(=O)[C@H](CCCCN)NC(=O)[C@H](CCCNC(=N)N)NC(=O)CNC(=O)[C@H](CCCCN)NC(=O)[C@H](CO)NC(=O)[C@@H]1CCCN1C(=O)[C@H](CCCNC(=N)N)NC(=O)[C@H](CS)NC(=O)[C@H](CCC(N)=O)NC(=O)[C@H](CCCCN)NC(=O)[C@H](CCCCN)NC(=O)[C@H](CCCCN)NC(=O)[C@H](Cc1ccc(O)cc1)NC(=O)[C@H](Cc1ccccc1)NC(=O)CNC(=O)[C@H](CCCCN)NC(=O)[C@@H](N)CCCCN)C(=O)N[C@@H](CO)C(=O)O [immX3FVS] (H-KKGFYKKKQCRPSKGRKRGFCWFVS-OH)
CD169+ (AU) [3]: 109.4 ± 4.5 AU | CCL22 [3]: 251.3 ± 5.8 pg/mL

B1: CSF1 (protein, UniProt P09603 33-554, looked up)
Macrophage colony-stimulating …: EEVSEYCSHMIGSGHLQSLQRLIDSQMETSCQITFEFVDQEQLKDPVCYLKKAFLLVQDIMEDTMRFRDNTPNAIAIVQLQELSLRLKSCFTKDYEEHDKACVRTFYETPLQLLEKVKNVFNETKNLLDKDWNIFSKNCNNSFAECSSQDVVTKPDCNCLYPKAIPSSDPASVSPHQPLAPSMAPVAGLTWEDSEGTEGSSLLPGEQPLHTVDPGSAKQRPPRSTCQSFEPPETPVVKDSTIGGSPQPRPSVGAFNPGMEDILDSAMGTNWVPEEASGEASEIPVPQGTELSPSRPGGGSMQTEPARPSNFLSASSPLPASAKGQQPADVTGTALPRVGPVRPTGQDWNHTPQKTDHPSALLRDPPEPGSPRISSLRPQGLSNPSTLSAQPQLSRSHSSGSVLPLGELEGRRSTRDRRSPAEPEGGPASEGAARPLPRFNSVPLTDTGHERQSEGSFSPQLQESVFHLLVPSVILVLLAVGGLLFYRWRRRSHQEPQRADSPLEQPEGSPLTQDDRQVELPV
notes: Growth factor class
CD169 (AU) [1, 9]: 108.0 ± 32.3 AU
